Results published in US20250382305A1 (PTC THERAPEUTICS, INC., priority 2022, published 2025).

Tests used:
[1] = tested on: Total ATXN3 (tATXN3) protein; assay: Endogenous Total ATXN3 (tATXN3) Protein Assay (MSD immunoassay of cell lysates); format: cell-based; conditions: average IC50, total ATXN3 protein in cell lysate after 48 h with compound (Table 1)
Procedure: Endogenous Total ATXN3 (tATXN3) Protein Assay
Meso Scale Discovery (MSD) 96-well or 384-well plates were coated overnight at 4° C. with Ataxin 3 mouse monoclonal antibody (Invitrogen, MA3-082) at a concentration of 0.5 μg/mL in PBS (30 μL per well). Plates were then washed three times with 300 μL wash buffer (0.05% TWEEN®-20, polyethylene glycol sorbitan monolaurate, in PBS) and blocked (Meso Scale Diagnostics, R93BA-1; 5% BSA in PBS) for 2 h at RT with rotational shaking and then washed three times with wash buffer.
(§1) Test compounds were serially diluted 3.16-fold in 100% DMSO to generate a 7-point concentration curve. Aliquots of 0.5 μL of diluted compounds were transferred to a 96-well flat bottom plate by a liquid handler. An aliquot of 0.5 μL DMSO was also transferred to separate wells and used as controls. Duplicate samples were set up for each compound concentration and for the DMSO control.
Cells were thawed and incubated in cell culture media (DMEM, 10% FBS, and 1% antibiotic cocktail) for 72 h. Cells were trypsinized, counted, and re-suspended to a concentration of 100,000 cells/mL in cell culture media. A 100 μL aliquot of the cell suspensions were plated at 10,000 cells per well in the compound containing 96 well microtiter plate and incubated for in a cell culture incubator (37° C., 5% CO2, 100% relative humidity). After 48 h, the medium was removed and 50-100 μL of lysis buffer (Meso Scale Diagnostics, R60TX-2) containing 1× halt protease inhibitor cocktail of (Thermo Scientific, Halt™ Protease Inhibitor Cocktail, 78430) per well was added to cells to provide a “cell lysate”. The plate was placed on a shaker at 4° C. for 30 minutes, then stored at −80° C.
Cell lysate samples (25 μL) were transferred to the antibody-coated MSD plate and incubated overnight at 4° C. After removal of the lysates, the plate was washed three times with wash buffer, and 25 μL of Ataxin 3 recombinant rabbit monoclonal antibody (Invitrogen, #702788) secondary antibody (diluted to 0.25 μg/mL in 0.05% TWEEN®-20 in blocking buffer) was added to each well and incubated with shaking for 1-2 h at room temperature. Following incubation with the secondary antibody, the wells were rinsed with wash buffer and then 25 μL of Anti Rabbit Antibody Goat SULFO-TAG Labeled (Meso Scale Diagnostics, R32AB-1) detecting antibody (diluted to […] in 0.05% TWEEN®-20 in blocking buffer) was added to each well and incubated with shaking for 1 h at room temperature. After rinsing three times with wash buffer, 150 μL of Read Buffer T with surfactant (tris-based buffer containing tripropylamine, Meso Scale Diagnostics, R92TC-1) were added to each empty well, and the plate was imaged on a SI 6000 imager (MSD) according to manufacturers' instructions provided for 96- or 384-well plates.
(§2) An average IC50>1 μM is indicated by one star (*), between >0.3 μM and ≤1 μM is indicated by two stars (**), between >0.03 μM and ≤0.3 μM is indicated by three stars (***), and ≤0.03 μM is indicated by four stars (****).

[2] = tested on: ATXN3 pre-mRNA; assay: RT-qPCR Assay to Quantify Exon 4 Skipping in ATXN3 pre-mRNA in Cells; format: cell-based; conditions: percent exon 4 skipping in ATXN3 pre-mRNA, RT-qPCR of cell lysates; average IC50
Procedure: RT-qPCR Assay to Quantify Exon 4 Skipping in ATXN3 pre-mRNA in Cells
as §1
Cells were thawed and incubated in cell culture media (DMEM, 10% FBS, and 1% antibiotic cocktail) for 72 h. Cells were trypsinized, counted, and re-suspended to a concentration of 100,000 cells/mL in cell culture media. A 100 μL aliquot of the cell suspensions were plated at 10,000 cells per well in the compound containing 96 well microtiter plate and incubated for in a cell culture incubator (37° C., 5% CO2, 100% relative humidity).
After 24 h, media was aspirated from the cells and 50 μL of the RCL2 lysis buffer (10 mM Tris-HCL pH 7.4, 150 mM NaCl, 0.33% IGEPAL® CA-630) was added to each well and incubated at RT for 1 min. Chilled nuclease free water (50 μL per well) was added and the plates were immediately transferred on ice. After 1 min on ice, plates were frozen at −80° C. overnight.
Preparation of RT-qPCR Reaction Mixture:
An aliquot of 2 μL/well of the cell lysates was transferred using the liquid handler to the Armadillo 384-Well PCR plate containing 8 μL/well of the RT-qPCR reaction mixture that was prepared as detailed above. The plates were then sealed with MicroAmp™ Optical Adhesive Film followed by spinning down for 1 min and placed in the CFX384 thermocycler (BioRad).
The RT-qPCR was carried out at the following temperatures for the indicated time: • Step 1: 48° C. (30 min) • Step 2: 95° C. (10 min) • Step 3: 95° C. (15 sec) • Step 4: 60° C. (1 min); then, repeated Steps 3 and 4 for a total of 40 cycles.
The percent exon 4 skipping was calculated for each dose of compound treatment using Equations 1 and 2.
Data were fit to a dose response curve and the IC50 was interpolated using XLfit® statistical and curve fitting package.
as §2

Cc1c([C@@H]2CCCCCC[C@H]2N)sc2c(NCc3cccs3)cc(Cl)nc12 [Compound 92, 2-((1R,2R)-2-aminocyclooctyl)-5-chloro-3-methyl-N-(thiophen-2-ylmethyl)thieno[3,2-b]pyridin-7-amine]
IC50 [1]: > 1 µM | IC50 [2]: > 1 µM

N[C@@H]1CCCCCC[C@H]1c1sc2c(NCc3cccs3)cc(Cl)nc2c1I [Compound 123, 2-((1R,2R)-2-aminocyclooctyl)-5-chloro-3-iodo-N-(thiophen-2-ylmethyl)thieno[3,2-b]pyridin-7-amine]
IC50 [1]: > 1 µM | IC50 [2]: > 1 µM

N[C@H]1CCCC[C@]1(F)c1sc2c(NCc3cccs3)cc(Cl)nc2c1Cl [Compound 32, 2-((1R,2S)-2-amino-1-fluorocyclohexyl)-3,5-dichloro-N-(thiophen-2-ylmethyl)thieno[3,2-b]pyridin-7-amine]
IC50 [1]: 0.03 to 0.3 µM | IC50 [2]: 0.03 to 0.3 µM

Cc1c([C@@H]2CCCC[C@H]2N)sc2c(NCc3ccco3)cc(Cl)nc12 [Compound 401, 2-((1R,2R)-2-aminocyclohexyl)-5-chloro-N-(furan-2-ylmethyl)-3-methylthieno[3,2-b]pyridin-7-amine]
IC50 [1]: > 1 µM | IC50 [2]: 0.3 to 1 µM

6-((1S,2S)-2-aminocyclohexyl)-2,7-dichloro-5-(difluoromethyl)-N-(furan-2-ylmethyl)-5H-pyrrolo[3,2-d]pyrimidin-4-amine and 6-((1R,2R)-2-aminocyclohexyl)-2,7-dichloro-5-(difluoromethyl)-N-(furan-2-ylmethyl)-5H-pyrrolo[3,2-d]pyrimidin-4-amine [Compound 334]
IC50 [1]: 0.03 to 0.3 µM | IC50 [2]: 0.03 to 0.3 µM

Cn1c([C@H]2CCOC[C@@H]2N)c(Br)c2nc(Cl)cc(NCc3cccs3)c21 [Compound 351, 2-((3R,4S)-3-aminotetrahydro-2H-pyran-4-yl)-3-bromo-5-chloro-1-methyl-N-(thiophen-2-ylmethyl)-1H-pyrrolo[3,2-b]pyridin-7-amine]
IC50 [1]: 0.03 to 0.3 µM | IC50 [2]: 0.03 to 0.3 µM

Cc1c([C@@H]2CC=CC[C@H]2N)sc2c(NCc3ccncc3F)nc(Cl)nc12 [Compound 435, 6-((1R,6R)-6-aminocyclohex-3-en-1-yl)-2-chloro-N-((3-fluoropyridin-4-yl)methyl)-7-methylthieno[3,2-d]pyrimidin-4-amine]
IC50 [1]: 0.03 to 0.3 µM | IC50 [2]: ≤ 0.03 µM

N[C@@H]1CCCCCC[C@@H]1c1sc2c(NCc3cccs3)cc(Cl)nc2c1Br [Compound 101, 2-((1S,2R)-2-aminocyclooctyl)-3-bromo-5-chloro-N-(thiophen-2-ylmethyl)thieno[3,2-b]pyridin-7-amine]
IC50 [1]: > 1 µM | IC50 [2]: > 1 µM

N[C@@H]1CCCO[C@H]1c1c(I)c2nc(Cl)nc(NCc3cccs3)c2n1C(F)F [Compound 416, 6-((2R,3R)-3-aminotetrahydro-2H-pyran-2-yl)-2-chloro-5-(difluoromethyl)-7-iodo-N-(thiophen-2-ylmethyl)-5H-pyrrolo[3,2-d]pyrimidin-4-amine]
IC50 [1]: 0.03 to 0.3 µM | IC50 [2]: 0.03 to 0.3 µM

N[C@H]1CCCCCC[C@@H]1c1sc2c(NCc3cccs3)cc(Cl)nc2c1Br [Compound 99, 2-((1S,2S)-2-aminocyclooctyl)-3-bromo-5-chloro-N-(thiophen-2-ylmethyl)thieno[3,2-b]pyridin-7-amine]
IC50 [1]: 0.03 to 0.3 µM | IC50 [2]: 0.03 to 0.3 µM

N[C@H]1CCCN(c2ccccc2)[C@H]1c1sc2c(NCc3cccs3)cc(Cl)nc2c1Br (racemic) [Compound 125, 2-((2R,3S)-3-amino-1-phenylpiperidin-2-yl)-3-bromo-5-chloro-N-(thiophen-2-ylmethyl)thieno[3,2-b]pyridin-7-amine and 2-((2S,3R)-3-amino-1-phenylpiperidin-2-yl)-3-bromo-5-chloro-N-(thiophen-2-ylmethyl)thieno[3,2-b]pyridin-7-amine]
IC50 [1]: > 1 µM | IC50 [2]: > 1 µM

Cc1c([C@@H]2CC=CC[C@H]2N)sc2c(NCc3cccs3)cc(Cl)nc12 [Compound 220, 2-((1R,6R)-6-aminocyclohex-3-en-1-yl)-5-chloro-3-methyl-N-(thiophen-2-ylmethyl)thieno[3,2-b]pyridin-7-amine]
IC50 [1]: ≤ 0.03 µM | IC50 [2]: ≤ 0.03 µM

Cc1c([C@H]2CCCCCC[C@@H]2N)sc2c(NCc3cccs3)cc(Cl)nc12 [Compound 94, 2-((1S,2S)-2-aminocyclooctyl)-5-chloro-3-methyl-N-(thiophen-2-ylmethyl)thieno[3,2-b]pyridin-7-amine]
IC50 [1]: 0.3 to 1 µM | IC50 [2]: 0.03 to 0.3 µM

N[C@H]1CC=CC[C@@H]1c1sc2c(NCc3cccs3)cc(Cl)nc2c1C#CC[C@@H](O)CO [Compound 211, (R)-5-(2-((1S,6S)-6-aminocyclohex-3-en-1-yl)-5-chloro-7-((thiophen-2-ylmethyl)amino)thieno[3,2-b]pyridin-3-yl)pent-4-yne-1,2-diol]
IC50 [1]: ≤ 0.03 µM | IC50 [2]: ≤ 0.03 µM

C/C=C/CNc1cc(Cl)nc2c(C)c([C@H]3CC=CC[C@@H]3N)sc12 [Compound 378, 2-((1S,6S)-6-aminocyclohex-3-en-1-yl)-N-((E)-but-2-en-1-yl)-5-chloro-3-methylthieno[3,2-b]pyridin-7-amine]
IC50 [1]: 0.03 to 0.3 µM | IC50 [2]: 0.03 to 0.3 µM

Cc1c([C@@H]2CC=CC[C@H]2N)sc2c(NCc3nccs3)nc(Cl)nc12 [Compound 441, 6-((1R,6R)-6-aminocyclohex-3-en-1-yl)-2-chloro-7-methyl-N-(thiazol-2-ylmethyl)thieno[3,2-d]pyrimidin-4-amine]
IC50 [1]: 0.03 to 0.3 µM | IC50 [2]: 0.03 to 0.3 µM

N[C@@H]1CCCCC[C@@H]1c1cc2nc(Cl)cc(NCc3cccs3)c2s1 [Compound 88, 2-((1S,2R)-2-aminocycloheptyl)-5-chloro-N-(thiophen-2-ylmethyl)thieno[3,2-b]pyridin-7-amine]
IC50 [1]: > 1 µM | IC50 [2]: > 1 µM

N[C@H]1CCCCCC[C@H]1c1sc2c(NCc3cccs3)cc(Cl)nc2c1Br [Compound 102, 2-((1R,2S)-2-aminocyclooctyl)-3-bromo-5-chloro-N-(thiophen-2-ylmethyl)thieno[3,2-b]pyridin-7-amine]
IC50 [1]: > 1 µM | IC50 [2]: > 1 µM

N[C@@H]1CCCO[C@H]1c1sc2c(NCc3cccs3)cc(Cl)nc2c1Cl [Compound 16, 2-((2R,3R)-3-aminotetrahydro-2H-pyran-2-yl)-3,5-dichloro-N-(thiophen-2-ylmethyl)thieno[3,2-b]pyridin-7-amine]
IC50 [1]: > 1 µM | IC50 [2]: > 1 µM

C/C=C\CNc1cc(Cl)nc2c(Cl)c([C@H]3CCCC[C@@H]3N)sc12 [Compound 442, 2-((1S,2S)-2-aminocyclohexyl)-N-((Z)-but-2-en-1-yl)-3,5-dichlorothieno[3,2-b]pyridin-7-amine]
IC50 [1]: 0.03 to 0.3 µM | IC50 [2]: 0.03 to 0.3 µM
